Test results published in US20240199587A1, “HETEROCYCLIC COMPOUNDS” (Hoffmann-La Roche Inc., priority 2021, published 2024).

target: T1, MAGL (Homo sapiens, UniProt Q99685); experiment: 2-AG assay (MAGL inhibitory activity, hydrolysis of 2-arachidonoylglycerol to arachidonic acid followed by mass spectrometry); assay type: biochemical; settings: 8 μM 2-arachidonoylglycerol, 15 min pre-incubation, 30 min incubation at RT, RapidFire MS readout
T1 sequence (Q99685 1-303): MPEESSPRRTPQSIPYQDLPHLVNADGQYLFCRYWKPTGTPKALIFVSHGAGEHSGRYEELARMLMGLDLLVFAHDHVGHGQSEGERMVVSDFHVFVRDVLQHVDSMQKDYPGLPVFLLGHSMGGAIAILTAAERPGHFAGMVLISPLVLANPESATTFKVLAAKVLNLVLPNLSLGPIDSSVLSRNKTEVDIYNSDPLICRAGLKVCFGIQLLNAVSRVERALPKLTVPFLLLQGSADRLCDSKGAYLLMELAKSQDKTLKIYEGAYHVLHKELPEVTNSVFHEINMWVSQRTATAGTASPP
Method in brief: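 Arachidonic acid released from 8 μM 2-arachidonoylglycerol was quantified by online SPE triple-quadrupole MS (negative ESI, 303.1→259.1), normalised to d8-arachidonic acid internal standard. Reaction ran 30 min at RT after 15 min RT compound pre-incubation with […] MAGL in TRIS/EDTA/Tween-20 buffer, 2.5% DMSO.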

Going from `O=C(N1CC2(CC(c3ccc(C(F)(F)F)nc3)C2)C1)N1CC2(CC(c3ccc(C(F)(F)F)nc3)C2)C1` [Example 522, bis[6-[6-(trifluoromethyl)-3-pyridyl]-2-azaspiro[3.3]heptan-2-yl]methanone] to `O=C(N1CC2(CC(Cc3ccc(C(F)(F)F)nc3)C2)C1)N1CC2(CC(c3ccc(C(F)(F)F)nc3)C2)C1` [Example 524, [6-[6-(trifluoromethyl)-3-pyridyl]-2-azaspiro[3.3]heptan-2-yl]-[6-[[6-(trifluoromethyl)-3-pyridyl]methyl]-2-azaspiro[3.3]heptan-2-yl]methanone], the IC50 falls from 849 nM to 74.3 nM (11-fold).

First: CC(C)(C)Cn1nncc1-c1ccc(C2CN(C(=O)N3CC4(CC(n5cncn5)C4)C3)C2)cc1 [Example 417, [3-[4-[3-(2,2-dimethylpropyl)triazol-4-yl]phenyl]azetidin-1-yl]-[6-(1,2,4-triazol-1-yl)-2-azaspiro[3.3]heptan-2-yl]methanone]
Second: Cc1cc(C2CN(C(=O)N3CC4(CC(n5cnc(C6CC6)n5)C4)C3)C2)ccc1OC(F)(F)F [Example 182, [6-(3-cyclopropyl-1,2,4-triazol-1-yl)-2-azaspiro[3.3]heptan-2-yl]-[3-[3-methyl-4-(trifluoromethoxy)phenyl]azetidin-1-yl]methanone]
The IC50 of the first is 7.2-fold lower: 359 nM for the first, 2580 nM for the second. The first is the more potent here.

Compared with `O=C(N1CC(Oc2ccc(C(F)(F)F)cc2)C1)N1CC2(CC(n3cnc(C4CC4)n3)C2)C1` [Example 202, [6-(3-cyclopropyl-1,2,4-triazol-1-yl)-2-azaspiro[3.3]heptan-2-yl]-[3-[4-(trifluoromethyl)phenoxy]azetidin-1-yl]methanone], `O=C(N1CC(OCc2cncc(C(F)(F)F)c2)C1)N1CC2(CC(n3cnc(C4CC4)n3)C2)C1` [Example 136, [6-(3-cyclopropyl-1,2,4-triazol-1-yl)-2-azaspiro[3.3]heptan-2-yl]-[3-[[5-(trifluoromethyl)-3-pyridyl]methoxy]azetidin-1-yl]methanone] is 20-fold higher in IC50: 0.7 nM for the first, 14 nM for the second. The first is the more potent here.

First: O=C(N1CC2(CC(n3cnc(C4CC4)n3)C2)C1)N1CC2(CN(Cc3ccc(C(F)(F)F)cn3)C2)C1 [Example 232]
Second: O=C(N1CC2(CC(Oc3cncc(C(F)(F)F)c3)C2)C1)N1CC2(CC(n3cnc(C4CC4)n3)C2)C1 [Example 81, (6-(3-cyclopropyl-1H-1,2,4-triazol-1-yl)-2-azaspiro[3.3]heptan-2-yl)(6-((5-(trifluoromethyl)pyridin-3-yl)oxy)-2-azaspiro[3.3]heptan-2-yl)methanone]
The IC50 of the first is 2.6-fold higher: 4.6 nM for the first, 1.8 nM for the second.

Going from `CS(=O)(=O)c1cncc(CC2CC3(C2)CN(C(=O)N2CC4(CC(n5cnc(C(F)(F)F)n5)C4)C2)C3)c1` [Example 457, [6-[(5-methylsulfonyl-3-pyridyl)methyl]-2-azaspiro[3.3]heptan-2-yl]-[6-[3-(trifluoromethyl)-1,2,4-triazol-1-yl]-2-azaspiro[3.3]heptan-2-yl]methanone] to `N=S(=O)(c1cccc(CC2CC3(C2)CN(C(=O)N2CC4(CC(n5cnc(C6(O)CC6)n5)C4)C2)C3)c1)C(F)(F)F` (single isomer, unassigned) [Example 407, [6-[3-(1-hydroxycyclopropyl)-1,2,4-triazol-1-yl]-2-azaspiro[3.3]heptan-2-yl]-[6-[[3-(trifluoromethyl-sulfonimidoyl)phenyl]methyl]-2-azaspiro[3.3]heptan-2-yl]methanone], the IC50 falls from 11 nM to 0.25 nM (44-fold). The second is the more potent here.

Compared with `O=C(N1CC(c2ccc(C3CC3)cc2F)C1)N1CC2(CC(n3cnc(C4CC4)n3)C2)C1` [Example 38, [3-(4-cyclopropyl-2-fluoro-phenyl)azetidin-1-yl]-[6-(3-cyclopropyl-1,2,4-triazol-1-yl)-2-azaspiro[3.3]heptan-2-yl]methanone], `CS(=N)(=O)c1cc(F)ccc1CC1CC2(C1)CN(C(=O)N1CC3(CC(n4cnc(C5CC5)n4)C3)C1)C2` (stereo not drawn) [Example 416, [6-(3-cyclopropyl-1,2,4-triazol-1-yl)-2-azaspiro[3.3]heptan-2-yl]-[6-[[4-fluoro-2-(methylsulfonimidoyl)phenyl]methyl]-2-azaspiro[3.3]heptan-2-yl]methanone] is 1.9-fold higher in IC50: 0.6 nM for the first, 1.12 nM for the second. The first is the more potent here.

First: O=C(N1CC2(CC(Cc3ncc(F)cc3F)C2)C1)N1CC2(CC(n3cnc(C4(O)CC4)n3)C2)C1 [Example 402, [6-[(3,5-difluoro-2-pyridyl)methyl]-2-azaspiro[3.3]heptan-2-yl]-[6-[3-(1-hydroxycyclopropyl)-1,2,4-triazol-1-yl]-2-azaspiro[3.3]heptan-2-yl]methanone]
Second: O=C(N1CC2(CC(n3cnc(C4CC4)n3)C2)C1)N1CC2(CC(n3cnc(C(F)(F)F)n3)C2)C1 [Example 449, [6-(3-cyclopropyl-1,2,4-triazol-1-yl)-2-azaspiro[3.3]heptan-2-yl]-[6-[3-(trifluoromethyl)-1,2,4-triazol-1-yl]-2-azaspiro[3.3]heptan-2-yl]methanone]
The IC50 of the first is 2.9-fold higher: 3.91 nM for the first, 1.37 nM for the second.

Going from `O=C(N1CC(NCc2ccc(C(F)(F)F)cc2Cl)C1)N1CC2(CC(c3cncc(F)c3)C2)C1` [Example 514, [3-[[2-chloro-4-(trifluoromethyl)phenyl]methylamino]azetidin-1-yl]-[6-(5-fluoro-3-pyridyl)-2-azaspiro[3.3]heptan-2-yl]methanone] to `O=C(N1CC2(CCC(Cc3ccc(C(F)(F)F)nc3)C2)C1)N1CC2(CC(c3ccc(C(F)(F)F)nc3)C2)C1` (stereo not drawn) [Example 535, [6-[6-(trifluoromethyl)-3-pyridyl]-2-azaspiro[3.3]heptan-2-yl]-[6-[[6-(trifluoromethyl)-3-pyridyl]methyl]-2-azaspiro[3.4]octan-2-yl]methanone], the IC50 rises from 88.6 nM to 170 nM (1.9-fold). The first is the more potent here.

Compared with `CNC(=O)[C@@H](c1ccc(F)cc1)N1CCN(C(=O)N2CC3(CC(n4cnc(C5CC5)n4)C3)C2)CC1` [Example 335, (2R)-2-[4-[6-(3-cyclopropyl-1,2,4-triazol-1-yl)-2-azaspiro[3.3]heptane-2-carbonyl]piperazin-1-yl]-2-(4-fluorophenyl)-N-methyl-acetamide], `NC(=O)[C@H](c1ccc(F)cc1)N1CCN(C(=O)N2CC3(CC(n4cnc(C5CC5)n4)C3)C2)CC1` [Example 306, (2S)-2-[4-[6-(3-cyclopropyl-1,2,4-triazol-1-yl)-2-azaspiro[3.3]heptane-2-carbonyl]piperazin-1-yl]-2-(4-fluorophenyl)acetamide] is 11-fold lower in IC50: 1400 nM for the first, 129 nM for the second.

First: Cc1cnn(C2CC3(C2)CN(C(=O)c2ccc(-c4noc(C(C)(C)C)n4)cc2)C3)c1 [Example 146, [4-(5-tert-butyl-1,2,4-oxadiazol-3-yl)phenyl]−[6-(4-methylpyrazol-1-yl)-2-azaspiro[3.3]heptan-2-yl]methanone]
Second: CC(Oc1cnn(C2CN(C(=O)N3CC4(CC(n5cnc(C6CC6)n5)C4)C3)C2)c1)C(F)(F)F (stereo not drawn) [Example 249, [6-(3-cyclopropyl-1,2,4-triazol-1-yl)-2-azaspiro[3.3]heptan-2-yl]-[3-[4-(2,2,2-trifluoro-1-methyl-ethoxy)pyrazol-1-yl]azetidin-1-yl]methanone]
The IC50 of the first is 28-fold higher: 400 nM for the first, 14.4 nM for the second.

With `O=C(N1CC2(CC(Nc3ccc(C(F)(F)F)nn3)C2)C1)N1CC2(CC(n3cnc(C4CC4)n3)C2)C1` [Example 267, [6-(3-cyclopropyl-1,2,4-triazol-1-yl)-2-azaspiro[3.3]heptan-2-yl]-[6-[[6-(trifluoromethyl)pyridazin-3-yl]amino]-2-azaspiro[3.3]heptan-2-yl]methanone] the IC50 was 30.7 nM.
